Assay results reported in patent US9708314B2, “Heterocyclic amide compound” (NISSAN CHEMICAL INDUSTRIES, LTD., priority 2013, dated 2017).

Key:
Type in all cases: in vivo
Monochoria vaginalis = assay: Test Example 2: herbicidal activity, application during weed generation in submerged conditions; conditions: Eighteenth Table; application herbicide amount 320 g/ha
How it was run: (§1)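 Alluvial soil in Wagner pots flooded to 4 cm water depth; seeds sown mixed, grown in greenhouse at 25–30 °C. At one- to two-leaf stage, emulsion diluted with water to the set rate (g/ha) was applied to the water surface. Effect scored 0–5 by herbicidal ratio three weeks later.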

Scirpus juncoides = assay: as above; conditions: Eighteenth Table; application herbicide amount 320 g/ha
How it was run: as §1

[1] = test system: directly sowed Oryza sativa; assay: Test Example 3: effect on crop by application to foliage (Wagner pot, water depth 0.1-0.5 cm); conditions: Nineteenth Table; application to foliage; application herbicide amount 320 g/ha
How it was run: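 Visual 0–5 rating of herbicidal ratio, taken 3 weeks after foliar spray of a diluted emulsion formulation at rates expressed as g/ha. Plants had been sown in alluvial soil under 0.1–0.5 cm water and grown 14 days at 25–30 °C under glass before application.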

[2] = test system: Beta vulgaris ssp. vulgaris; assay: Test Example 4: effect on crop by application to foliage (diluvial soil, plastic box); conditions: for f: effect on crop, Beta vulgaris ssp. vulgaris: application to foliage, application herbicide amount 320 g/ha; for f (Beta vulgaris ssp. vulgaris) effect on crop grade: foliage application
How it was run: (§2)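 Scores run from 0 (herbicidal ratio ≤5%) to 5 (≥90%, almost fully withered) and were assessed three weeks after foliar spraying. Seedlings had been raised for 14 days at 25-30° C in sterilized diluvial soil before treatment, with the emulsion diluted in water to the stated g/ha dose.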

Brassica campestris L. = assay: as above; conditions: for g: effect on crop, Brassica campestris L.: application to foliage, application herbicide amount 320 g/ha; for g (Brassica campestris L.) effect on crop grade: foliage application
How it was run: as §2

Glycine max = assay: as above; conditions: for d: effect on crop, Glycine max: application to foliage, application herbicide amount 320 g/ha; for c (Glycine max) effect on crop grade: 320 g/ha
How it was run: as §2

Triticum aestivum = assay: as above; conditions: for e: effect on crop, Triticum aestivum: application to foliage, application herbicide amount 320 g/ha; for e (Triticum aestivum) effect on crop grade: foliage application
How it was run: as §2

Zea mays = assay: as above; conditions: for c: effect on crop, Zea mays: application to foliage, application herbicide amount 320 g/ha; for b (Zea mays) effect on crop grade: 320 g/ha
How it was run: as §2

[3] = test system: directly sowed Oryza sativa; assay: as above; conditions: for b: effect on crop, directly sowed Oryza sativa: application to foliage, application herbicide amount 320 g/ha; for d (directly sowed Oryza sativa) effect on crop grade: 320 g/ha
How it was run: as §2

[4] = Application herbicide amount 320 g/ha, effect on crop
[5] = Application herbicide amount 320 g/ha
[6] = Application herbicide amount 320 g/ha, foliage application

Compound | C (Monochoria vaginalis) herbicidal ratio grade (Monochoria vaginalis) | B (Scirpus juncoides) herbicidal ratio grade (Scirpus juncoides) | b (effect on crop grade) [1] | f: effect on crop, Beta vulgaris ssp. vulgaris [2] | g: effect on crop, Brassica campestris L. (Brassica campestris L.) | d: effect on crop, Glycine max (Glycine max) | e: effect on crop, Triticum aestivum (Triticum aestivum) | c: effect on crop, Zea mays (Zea mays) | b: effect on crop, directly sowed Oryza sativa [3] | also measured
Cn1nnnc1NC(=O)c1ccc(C(F)(F)F)n2c(C3CC3)nnc12 [2-005] | 4 (Herbicidal ratio of 70% or more and less than 90%) | 3 (Herbicidal ratio of 40% or more and less than 70%) | 2 (Herbicidal ratio of 20% or more and less than 40%) | 5 (Herbicidal ratio of 90% or more (almost completely withered)) | 4 (Herbicidal ratio of 70% or more and less than 90%) | 3 (Herbicidal ratio of 40% or more and less than 70%) | 3 (Herbicidal ratio of 40% or more and less than 70%) | 1 (Herbicidal ratio of 5% or more and less than 20%) | 0 (Herbicidal ratio of 5% or less (almost no effect)) | 
CC(C)Sc1nnc2c(C(=O)Nc3nnnn3C)ccc(C(F)(F)F)n12 [2-025] | 5 (Herbicidal ratio of 90% or more (almost completely withered)) | 4 (Herbicidal ratio of 70% or more and less than 90%) | 5 (Herbicidal ratio of 90% or more (almost completely withered)) | 5 (Herbicidal ratio of 90% or more (almost completely withered)) | 4 (Herbicidal ratio of 70% or more and less than 90%) | 4 (Herbicidal ratio of 70% or more and less than 90%) | 3 (Herbicidal ratio of 40% or more and less than 70%) | 1 (Herbicidal ratio of 5% or more and less than 20%) | 5 (Herbicidal ratio of 90% or more (almost completely withered)) | 
C=CCSc1nnc2c(C(=O)Nc3nnc(C)o3)ccc(C(F)(F)F)n12 [1-064] | 2 (Herbicidal ratio of 20% or more and less than 40%) | 3 (Herbicidal ratio of 40% or more and less than 70%) | 2 (Herbicidal ratio of 20% or more and less than 40%) |  |  |  |  |  |  | f [2, 4]: 4 (Herbicidal ratio of 70% or more and less than 90%); g (Brassica campestris L.; [4]): 3 (Herbicidal ratio of 40% or more and less than 70%); c (Glycine max; [4]): 0 (Herbicidal ratio of 5% or less (almost no effect)); e (Triticum aestivum; [4]): 0 (Herbicidal ratio of 5% or less (almost no effect)); b (Zea mays; [4]): 0 (Herbicidal ratio of 5% or less (almost no effect)); d [3, 4]: 3 (Herbicidal ratio of 40% or more and less than 70%)
Cn1nnnc1NC(=O)c1ccc(C(F)(F)F)n2c(C3=NOC(C)(C)C3)nnc12 [2-028] | 4 (Herbicidal ratio of 70% or more and less than 90%) | 4 (Herbicidal ratio of 70% or more and less than 90%) | 5 (Herbicidal ratio of 90% or more (almost completely withered)) |  |  |  |  |  |  | f (Beta vulgaris ssp. vulgaris) effect on crop grade ([2]; 320 g/ha): 5 (Herbicidal ratio of 90% or more (almost completely withered)); g (Brassica campestris L.) effect on crop grade (Brassica campestris L.; 320 g/ha): 5 (Herbicidal ratio of 90% or more (almost completely withered)); c (Glycine max) effect on crop grade (Glycine max; foliage application): 3 (Herbicidal ratio of 40% or more and less than 70%); e (Triticum aestivum) effect on crop grade (Triticum aestivum; 320 g/ha): 4 (Herbicidal ratio of 70% or more and less than 90%); b (Zea mays) effect on crop grade (Zea mays; foliage application): 5 (Herbicidal ratio of 90% or more (almost completely withered)); d (directly sowed Oryza sativa) effect on crop grade ([3]; foliage application): 4 (Herbicidal ratio of 70% or more and less than 90%)
CCC(CC)c1nnc2c(C(=O)Nc3nnnn3C)ccc(C(F)(F)F)n12 [2-006] | 5 (Herbicidal ratio of 90% or more (almost completely withered)) | 5 (Herbicidal ratio of 90% or more (almost completely withered)) | 5 (Herbicidal ratio of 90% or more (almost completely withered)) | 5 (Herbicidal ratio of 90% or more (almost completely withered)) | 4 (Herbicidal ratio of 70% or more and less than 90%) | 4 (Herbicidal ratio of 70% or more and less than 90%) | 3 (Herbicidal ratio of 40% or more and less than 70%) | 1 (Herbicidal ratio of 5% or more and less than 20%) | 5 (Herbicidal ratio of 90% or more (almost completely withered)) | 
COCCOCc1nnc2c(C(=O)Nc3nnco3)ccc(C(F)(F)F)n12 [1-107] | 4 (Herbicidal ratio of 70% or more and less than 90%) | 4 (Herbicidal ratio of 70% or more and less than 90%) | 3 (Herbicidal ratio of 40% or more and less than 70%) |  |  |  |  |  |  | f (Beta vulgaris ssp. vulgaris) effect on crop grade [2, 5]: 5 (Herbicidal ratio of 90% or more (almost completely withered)); g (Brassica campestris L.) effect on crop grade (Brassica campestris L.; [5]): 5 (Herbicidal ratio of 90% or more (almost completely withered)); d (Glycine max) effect on crop grade (Glycine max; [6]): 5 (Herbicidal ratio of 90% or more (almost completely withered)); e (Triticum aestivum) effect on crop grade (Triticum aestivum; [5]): 3 (Herbicidal ratio of 40% or more and less than 70%); c (Zea mays) effect on crop grade (Zea mays; [6]): 1 (Herbicidal ratio of 5% or more and less than 20%); b (directly sowed Oryza sativa) effect on crop grade [3, 6]: 4 (Herbicidal ratio of 70% or more and less than 90%)
CC[S+]([O-])c1nnc2c(C(=O)Nc3nnnn3C)ccc(C(F)(F)F)n12 (stereo not drawn) [2-031] | 4 (Herbicidal ratio of 70% or more and less than 90%) | 4 (Herbicidal ratio of 70% or more and less than 90%) | 5 (Herbicidal ratio of 90% or more (almost completely withered)) |  |  |  |  |  |  | f (Beta vulgaris ssp. vulgaris) effect on crop grade ([2]; 320 g/ha): 5 (Herbicidal ratio of 90% or more (almost completely withered)); g (Brassica campestris L.) effect on crop grade (Brassica campestris L.; 320 g/ha): 5 (Herbicidal ratio of 90% or more (almost completely withered)); c (Glycine max) effect on crop grade (Glycine max; foliage application): 5 (Herbicidal ratio of 90% or more (almost completely withered)); e (Triticum aestivum) effect on crop grade (Triticum aestivum; 320 g/ha): 5 (Herbicidal ratio of 90% or more (almost completely withered)); b (Zea mays) effect on crop grade (Zea mays; foliage application): 5 (Herbicidal ratio of 90% or more (almost completely withered)); d (directly sowed Oryza sativa) effect on crop grade ([3]; foliage application): 5 (Herbicidal ratio of 90% or more (almost completely withered))
